Measured values from the NIST ThermoML archive (doi:10.1021/acs.jced.5b00367).

Assay: wn = mass fraction of the nth substance listed
Details: 101 kPa, Liquid, Alternating current cell with electrodes, w2 = 0.01

CCCCCCCCCCCCCCCC[N+](C)(C)C.[Br-] [N,N,N-trimethyl-1-hexadecanaminium bromide] + O
Details	electrical conductivity [S/m]
278.35 K	0.0058
278.45 K	0.00619
278.65 K	0.00607
278.75 K	0.00612
278.85 K	0.0062
278.95 K	0.00609
279.05 K	0.00617
279.15 K	0.00614
279.25 K	0.0062
279.35 K	0.00616
279.45 K	0.00619
279.55 K	0.00628
279.65 K	0.00609
279.85 K	0.0061
279.95 K	0.00631
280.05 K	0.00615
280.15 K	0.00638
280.25 K	0.00613
280.35 K	0.00642
280.45 K	0.00634
280.55 K	0.00613
280.65 K	0.00616
280.75 K	0.00638
280.95 K	0.00614
281.05 K	0.00624
281.25 K	0.00621
281.35 K	0.00655
281.45 K	0.00644
281.55 K	0.00622
281.75 K	0.00649
281.85 K	0.00648
282.05 K	0.00651
282.45 K	0.00667
282.55 K	0.00678
282.65 K	0.00648
282.75 K	0.00655
282.95 K	0.00662
283.05 K	0.00638
283.15 K	0.00641
283.25 K	0.0067
283.35 K	0.00677
283.45 K	0.00666
283.55 K	0.0068
283.75 K	0.00674
283.85 K	0.0068
283.95 K	0.00686
284.05 K	0.00653
284.15 K	0.00678
284.25 K	0.00646
284.45 K	0.00672
284.55 K	0.007
284.65 K	0.00699
284.75 K	0.00651
284.85 K	0.00686
285.05 K	0.00717
285.15 K	0.00708
285.25 K	0.00696
285.35 K	0.00725
285.45 K	0.00739
285.55 K	0.00715
285.65 K	0.00719
285.85 K	0.00716
285.95 K	0.00733
286.05 K	0.00702
286.15 K	0.00705
286.25 K	0.007
286.35 K	0.00737
286.45 K	0.00737
286.55 K	0.00715
286.65 K	0.00719
286.75 K	0.00733
286.85 K	0.0074
286.95 K	0.00708
287.05 K	0.00755
287.15 K	0.00733
287.25 K	0.00744
287.35 K	0.00761
287.45 K	0.00728
287.55 K	0.00751
287.65 K	0.00752
287.75 K	0.0073
287.85 K	0.0076
287.95 K	0.00774
288.05 K	0.0076
288.15 K	0.00778
288.25 K	0.00766
288.35 K	0.00772
288.45 K	0.00805
288.55 K	0.00791
288.65 K	0.00778
288.75 K	0.00779
288.85 K	0.0077
288.95 K	0.00795
289.05 K	0.00784
289.15 K	0.00787
289.25 K	0.00779
289.35 K	0.00805
289.45 K	0.00794
289.55 K	0.00793
289.65 K	0.00803
289.75 K	0.00826
289.85 K	0.00819
289.95 K	0.00835
290.05 K	0.0079
290.15 K	0.00861
290.25 K	0.00828
290.35 K	0.00849
290.45 K	0.00815
290.55 K	0.00824
290.65 K	0.00834
290.75 K	0.00836
290.85 K	0.00818
290.95 K	0.00836
291.05 K	0.00861
291.15 K	0.00846
291.25 K	0.0088
291.35 K	0.00865
291.45 K	0.00866
291.55 K	0.00853
291.65 K	0.00868
291.75 K	0.00867
291.85 K	0.00897
291.95 K	0.00872
292.05 K	0.00879
292.15 K	0.00913
292.25 K	0.00908
292.35 K	0.00902
292.45 K	0.00905
292.55 K	0.00904
292.65 K	0.00928
292.75 K	0.00942
292.85 K	0.00967
292.95 K	0.00959
293.05 K	0.00954
293.15 K	0.00976
293.25 K	0.01
293.35 K	0.0101
293.45 K	0.0102
293.55 K	0.0103
293.65 K	0.0105
293.75 K	0.0102
294.15 K	0.0106
294.25 K	0.0109
294.35 K	0.0107
294.45 K	0.011
294.55 K	0.0111
294.65 K	0.0109
294.75 K	0.011
294.85 K	0.0114
294.95 K	0.0113
295.05 K	0.0114
295.15 K	0.0117
295.25 K	0.0117
295.45 K	0.0122
295.65 K	0.0126
295.75 K	0.0124
295.85 K	0.0128
296.05 K	0.013
296.15 K	0.0139
296.35 K	0.0139
296.45 K	0.0145
296.55 K	0.0148
296.75 K	0.0157
296.95 K	0.0167
297.05 K	0.0178
297.15 K	0.02
297.35 K	0.0201
297.45 K	0.0217
297.55 K	0.0232
297.65 K	0.0257
297.95 K	0.0314
298.05 K	0.0353
298.25 K	0.0406
298.35 K	0.0457
298.45 K	0.0514
298.55 K	0.0565
298.75 K	0.0605
298.85 K	0.0628
299.05 K	0.0642
299.15 K	0.0647
299.25 K	0.0648
299.55 K	0.0651
299.75 K	0.0653
299.95 K	0.0654
300.25 K	0.0657
300.85 K	0.066
301.25 K	0.0662
301.45 K	0.0663
302.05 K	0.0667
302.25 K	0.0668
302.55 K	0.067
302.65 K	0.0671
302.85 K	0.0672
302.95 K	0.0666
303.05 K	0.0673
303.15 K	0.0675
303.35 K	0.0676
303.65 K	0.0678
303.85 K	0.0679
304.05 K	0.068
304.25 K	0.0682
304.45 K	0.0683
304.55 K	0.0684
304.75 K	0.0685
304.95 K	0.0687
305.15 K	0.0688
305.45 K	0.0689
305.65 K	0.0692
306.25 K	0.0695
306.45 K	0.0696
306.85 K	0.0699
307.05 K	0.07
307.35 K	0.0702
307.45 K	0.0703
307.75 K	0.0705
307.95 K	0.0707
308.65 K	0.0712
308.85 K	0.0714
309.05 K	0.0715
309.35 K	0.0712
309.55 K	0.0718
309.75 K	0.0719
309.85 K	0.0721
310.05 K	0.0722
310.25 K	0.0723
310.45 K	0.0724
310.65 K	0.0727
310.85 K	0.0728
311.25 K	0.073
311.55 K	0.0732
311.75 K	0.0735
312.05 K	0.0737
312.55 K	0.074
312.95 K	0.0744
313.35 K	0.0745
313.55 K	0.0747
313.75 K	0.0748
313.95 K	0.075
314.15 K	0.0752
314.35 K	0.0753
314.55 K	0.0755
314.75 K	0.0756
314.95 K	0.0759
315.45 K	0.0761
315.55 K	0.0762
315.75 K	0.0764
315.95 K	0.0765
316.15 K	0.0767
316.35 K	0.0769
316.65 K	0.0771
317.05 K	0.0775
317.15 K	0.0776
318.05 K	0.0778
318.25 K	0.0783
318.45 K	0.0786
318.95 K	0.079
319.25 K	0.0792
319.75 K	0.0798
320.25 K	0.08
320.35 K	0.0802
320.65 K	0.0816
321.85 K	0.0817
322.05 K	0.0819
322.25 K	0.082
322.35 K	0.0823
322.75 K	0.0824
322.85 K	0.0826
323.15 K	0.083
323.35 K	0.0832
323.45 K	0.0834
323.65 K	0.0837
323.85 K	0.0839
324.05 K	0.0841
324.35 K	0.0842
324.45 K	0.0843
324.65 K	0.0846
324.75 K	0.0848
324.85 K	0.0849
325.15 K	0.0853
325.35 K	0.0855
325.55 K	0.0856
325.65 K	0.0858
325.85 K	0.086
326.15 K	0.0862
326.25 K	0.0863
326.45 K	0.0866
326.55 K	0.0869
326.75 K	0.087
326.95 K	0.0871
327.05 K	0.0873
327.55 K	0.0876
327.75 K	0.0876
333.45 K	0.0912
333.65 K	0.0914
333.75 K	0.0915
334.05 K	0.0916
334.35 K	0.092
334.75 K	0.0922
334.95 K	0.0924
335.35 K	0.0926
335.55 K	0.0927
335.75 K	0.0929
335.95 K	0.093
336.15 K	0.0932
336.55 K	0.0934
336.65 K	0.0935
336.85 K	0.0936
337.05 K	0.0937
337.25 K	0.0939
337.55 K	0.0942
337.75 K	0.0943
338.05 K	0.0945
338.15 K	0.0947
338.55 K	0.095
338.75 K	0.0951
338.95 K	0.0952
339.05 K	0.0953
339.15 K	0.0954
339.35 K	0.0955
339.65 K	0.0957
339.85 K	0.0959
340.05 K	0.096
340.35 K	0.0962
340.55 K	0.0963
340.65 K	0.0964
340.85 K	0.0966
341.05 K	0.0967
341.15 K	0.0968
341.35 K	0.097
341.55 K	0.0971
341.65 K	0.0972
341.85 K	0.0973
341.95 K	0.0974
342.05 K	0.0975
342.25 K	0.0977
342.45 K	0.0979
342.75 K	0.098
342.95 K	0.0982
343.05 K	0.0983
343.25 K	0.0987
343.45 K	0.0989
343.75 K	0.099
343.95 K	0.0991
344.05 K	0.0993
344.35 K	0.0995
344.55 K	0.0996
344.75 K	0.1
345.05 K	0.1
345.35 K	0.1
345.55 K	0.101
345.85 K	0.101
346.05 K	0.101
346.25 K	0.101
346.55 K	0.101
346.75 K	0.102
346.85 K	0.102
347.05 K	0.102
347.25 K	0.102
347.55 K	0.102
347.75 K	0.102
348.05 K	0.103
348.15 K	0.103
